Test results from paper PMC7216583 (Parasites & Vectors, 2020).
Counter-ions that a name gives are not always drawn. Like-named read-outs stand apart in the source and are kept apart here.

Assays:
[1] = test system: Toxoplasma gondii RH-2F tachyzoites; test: microbe, parasite or virus in culture; settings: 72 h
[2] = test system: voltage-gated sodium channels; set-up: method as in S-inhibitor; settings: ref S-inhibitor; cited from earlier work
HIV-2 EHO = test system: HIV-2 EHO; set-up: method as in S-inhibitor; settings: ref S-inhibitor; cited from earlier work
HIV-2 ROD = test system: HIV-2 ROD; set-up: method as in S-inhibitor; settings: ref S-inhibitor; cited from earlier work
HIV-1 IIIB = test system: HIV-1 IIIB; set-up: method as in S-inhibitor; settings: ref S-inhibitor; cited from earlier work
glucokinase (GK) = biological target: glucokinase (GK); set-up: method as in S-inhibitor; settings: ref S-inhibitor; read-out: EC50, glucokinase activation; cited from earlier work
Abl = test system: Abl; set-up: method as in library vendor description; settings: ref library vendor description; cited from earlier work
MEK1/2 = test system: MEK1/2; set-up: method as in S-inhibitor; settings: ref S-inhibitor; cited from earlier work
Flt4 = test system: Flt4; set-up: method as in S-inhibitor; settings: ref S-inhibitor; cited from earlier work
in vitro = settings: human; for viability at 72 h: Host viability (%) mean
D4 receptor = settings: read-out: Ki, D4 receptor; ref S-inhibitor; cited from earlier work
D2L receptor = settings: read-out: Ki, D2L receptor; ref S-inhibitor; cited from earlier work
D2S receptor = settings: read-out: Ki, D2S receptor; ref S-inhibitor; cited from earlier work
D3 receptor = settings: read-out: Ki, D3 receptor; ref S-inhibitor; cited from earlier work
Notch signaling = test system: Notch signaling; set-up: method as in S-inhibitor; settings: ref S-inhibitor; cited from earlier work
γ-secretase = biological target: γ-secretase; set-up: method as in S-inhibitor; settings: ref S-inhibitor, cited from earlier work
smoothened [3] = test system: smoothened; set-up: method as in S-inhibitor; settings: mouse; ref S-inhibitor; cited from earlier work
smoothened [4] = test system: smoothened; set-up: method as in S-inhibitor; settings: human; ref S-inhibitor; cited from earlier work
[5] = test system: Toxoplasma gondii RH-2F tachyzoites; settings: preliminary screen, mean
phosphodiesterase = biological target: phosphodiesterase; set-up: method as in S-inhibitor; settings: ref S-inhibitor; cited from earlier work
V617F mutant JAK2 = test system: V617F mutant JAK2; set-up: method as in S-inhibitor; settings: in Ba/F3 cells; ref S-inhibitor; cited from earlier work
CDK2/cyclin E = test system: CDK2/cyclin E; set-up: method as in S-inhibitor; settings: ref S-inhibitor; cited from earlier work
CDK1/cyclin B = test system: CDK1/cyclin B; set-up: method as in S-inhibitor; settings: ref S-inhibitor; cited from earlier work
ErbB2 = test system: ErbB2; set-up: method as in library vendor description; settings: ref library vendor description; cited from earlier work
EGFR = test system: EGFR; set-up: method as in library vendor description; settings: ref library vendor description; cited from earlier work
[6] = test system: cleavage of Tyr from Met-enkephalin; set-up: method as in S-inhibitor; settings: ref S-inhibitor; read-out: IC50, inhibition of cleavage of Tyr from Met-enkephalin; cited from earlier work
If = test system: If; set-up: method as in S-inhibitor; settings: ref S-inhibitor; cited from earlier work
(Na,K)-ATPase = biological target: (Na,K)-ATPase; set-up: method as in S-inhibitor; settings: one value printed for both enzymes; ref S-inhibitor; cited from earlier work
alkaline phosphatase = settings: read-out: IC50, alkaline phosphatase; one value printed for both enzymes; ref S-inhibitor; cited from earlier work
S217Q PFV IN = test system: S217Q PFV IN; set-up: method as in S-inhibitor; settings: ref S-inhibitor; cited from earlier work
WT PFV IN = test system: WT PFV IN; set-up: method as in S-inhibitor; settings: ref S-inhibitor; cited from earlier work
MAPKAP-K1b = test system: MAPKAP-K1b; set-up: method as in S-inhibitor; settings: ref S-inhibitor; cited from earlier work
PKBα = test system: PKBα; set-up: method as in S-inhibitor; settings: ref S-inhibitor; cited from earlier work
MSK1 = test system: MSK1; set-up: method as in S-inhibitor; settings: ref S-inhibitor; cited from earlier work
PKA = test system: PKA; set-up: method as in S-inhibitor; settings: ref S-inhibitor; cited from earlier work
S6K1 = test system: S6K1; set-up: method as in S-inhibitor; settings: ref S-inhibitor; cited from earlier work
reverse transcriptase = settings: read-out: IC50, reverse transcriptase; ref S-inhibitor; cited from earlier work
PDE4 = test system: PDE4; set-up: method as in S-inhibitor; settings: ref S-inhibitor; cited from earlier work
FAK = settings: read-out: IC50, FAK; ref S-inhibitor; cited from earlier work
[7] = biological target: serotonin-norepinephrine reuptake; settings: read-out: Ki, serotonin-norepinephrine reuptake inhibitor; ref S-inhibitor; cited from earlier work
dopamine D2 = biological target: dopamine D2; set-up: method as in S-inhibitor; settings: ref S-inhibitor; cited from earlier work
5-HT2 receptor = biological target: 5-HT2 receptor; set-up: method as in S-inhibitor; settings: ref S-inhibitor; read-out: Ki, serotonin 5-HT2; cited from earlier work
PARP1 = biological target: PARP1; set-up: method as in S-inhibitor; settings: ref S-inhibitor; cited from earlier work
GSK-3β = test system: GSK-3β; set-up: method as in S-inhibitor; settings: ref S-inhibitor; cited from earlier work
ERβ = test system: ERβ; set-up: method as in S-inhibitor; settings: ref S-inhibitor; read-out: IC50, ERβ binding; cited from earlier work
ERα = settings: read-out: IC50, ERα binding; ref S-inhibitor; cited from earlier work
[8] = read-out: Parasite inhibition (%) mean, preliminary screen, mean
[9] = read-out: Parasite inhibition (%) mean

For `CCCOc1ccc(C(=O)OCCN(CC)CC)cc1N` [Proparacaine HCl], the inhibition of growth at 5 µM [1, 8] is listed as 2.4% and the “ED50, voltage-gated sodium channels” value [2] is listed as “Proparacaine HCl is a voltage-gated sodium channels antagonist with ED50 of 3.4 mM”.
In the case of `COc1cc2c(cc1Cc1cccc(Cl)c1F)c(=O)c(C(=O)O)cn2[C@H](CO)C(C)C` [Elvitegravir (GS-9137)], the IC50 (HIV-2 EHO) is listed as 2.8 nM, the IC50 (HIV-2 ROD) is listed as 1.4 nM and the IC50 (HIV-1 IIIB) is listed as 0.7 nM. The inhibition of growth at 5 µM [1, 8] was 0.7%.
For `O=C(Nc1ncc(SCCN2CCCC2)s1)[C@]1(c2ccc(S(=O)(=O)C3CC3)cc2)C[C@@H]1C1CCCCC1` [LY2608204], the inhibition of growth at 5 µM [1, 9] is listed as -25.9% and the EC50 (glucokinase (GK)) is listed as 42 nM.
In the case of `COc1cc(Nc2c(C#N)cnc3cc(OCCCN4CCN(C)CC4)c(OC)cc23)c(Cl)cc1Cl` [Bosutinib (SKI-606)], the IC50 (Abl) is listed as […] and the inhibition of growth at 5 µM [1, 8] is listed as 22.4%.
For `Cc1cc(C(=O)NOCCO)c(Nc2ccc(I)cc2F)n(C)c1=O` [AZD8330], the IC50 (MEK1/2) is listed as 7 nM and the inhibition of growth at 5 µM [1, 8] is listed as -18.8%.
For `Cc1cc(Nc2cc(N3CCN(C)CC3)nc(/C=C/c3ccccc3)n2)n[nH]1` [ENMD-2076 L-(+)-Tartaric acid], the IC50 (Flt4) is listed as 15.9 nM and the viability at 72 h (in vitro; preliminary screen, mean) is listed as 35.5%.
In the case of `CCCN[C@H]1CCc2nc(N)sc2C1` [Pramipexole 2HCl monohydrate], the Ki (D4 receptor) is listed as 5.1 nM, the Ki (D2L receptor) is listed as 2.2 nM and the inhibition of growth at 5 µM [1, 9] is listed as -9.5%. For the same compound, the Ki (D2S receptor) was […] and the Ki (D3 receptor) was 0.5 nM.
For `CC(C)[C@H](O)C(=O)N[C@@H](C)C(=O)N[C@H]1C(=O)N(C)CCc2ccccc21` [Semagacestat (LY450139)], the IC50 (Notch signaling) is listed as 14.1 nM, the inhibition of growth at 5 µM [1, 8] is listed as -9.8% and the IC50 (γ-secretase; Aβ38, read-out: IC50, γ-secretase, Aβ38) is listed as 12 nM. The IC50 (γ-secretase; Aβ40, read-out: IC50, γ-secretase, Aβ40) was 12.1 nM and the IC50 (γ-secretase; Aβ42, read-out: IC50, γ-secretase, Aβ42) was 10.9 nM.
For `Cc1c(C(=O)Nc2ccc(N3C[C@@H](C)O[C@@H](C)C3)nc2)cccc1-c1ccc(OC(F)(F)F)cc1` [LDE225 (NVP-LDE225, Erismodegib)], the IC50 (smoothened [3]) is listed as 1.3 nM, the inhibition of growth at 5 µM [1, 8] is listed as -3.8% and the IC50 (smoothened [4]) is listed as 2.5 nM.
For `Cn1c(=O)c2[nH]cnc2n(C)c1=O.Cn1c(=O)c2[nH]cnc2n(C)c1=O.NCCN` [Aminophylline (Truphylline)], the “Parasite inhibition (%) mean” value [5] is listed as 0.8% and the IC50 (phosphodiesterase) is listed as 120000 nM.
In the case of `Cc1cc(Nc2cc(CN3CCOCC3)c3nc(C)c(Cc4ccc(Cl)cc4F)n3n2)n[nH]1` [LY2784544], the inhibition of growth at 5 µM [1, 8] is listed as 11.1% and the IC50 (V617F mutant JAK2) is listed as 55 nM.
In the case of `CCCCOc1c(C(=O)c2c(F)cc(C)cc2F)c[nH]c2nncc1-2` [BMS-265246], the IC50 (CDK2/cyclin E) is listed as 9 nM, the inhibition of growth at 5 µM [1, 8] is listed as 7.3% and the IC50 (CDK1/cyclin B) is listed as 6 nM.
In the case of `C=CC(=O)Nc1cc2c(Nc3ccc(F)c(Cl)c3)ncnc2cc1OCCCN1CCOCC1` [CI-1033 (Canertinib)], the inhibition of growth at 5 µM [1, 8] is given as -5.8%, the IC50 (ErbB2) is given as […] and the IC50 (EGFR) is given as […].
In the case of Bacitracin zinc, the “Parasite inhibition (%) mean” value [5] is listed as 9.0% and the IC50 [6] is listed as 10000 nM.
For `COc1cc2c(cc1OC)CC(=O)N(CCCN(C)C[C@@H]1Cc3cc(OC)c(OC)cc31)CC2` [Ivabradine HCl (Procoralan)], the IC50 (If) is listed as 2900 nM and the inhibition of growth at 5 µM [1, 8] is listed as 0.6%.
In the case of `[Na+].[Na+].[Na+].[O]=[V]([O-])([O-])[O-]` [Sodium orthovanadate], the IC50 ((Na,K)-ATPase) is listed as 10000 nM, the “Parasite inhibition (%) mean” value [5] is listed as 31.8% and the IC50 (alkaline phosphatase) is listed as 10000 nM.
For `Cc1nnc(C(=O)NC(C)(C)c2nc(C(=O)NCc3ccc(F)cc3)c(O)c(=O)n2C)o1` [Raltegravir (MK-0518)], the IC50 (S217Q PFV IN) is given as 40 nM, the inhibition of growth at 5 µM [1, 8] is given as 0.8% and the IC50 (WT PFV IN) is given as 90 nM.
For `O=S(=O)(NCCNC/C=C/c1ccc(Br)cc1)c1cccc2cnccc12` [H 89 2HCl, reference compound], the IC50 (MAPKAP-K1b) is given as 2800 nM, the IC50 (PKBα) is given as […] and the inhibition at 5 µM ([1]; read-out: Parasite inhibition (%) Mean ± SD) is given as 83.5 ± 1.8%. For the same compound, the IC50 (MSK1) was 120 nM, the IC50 (PKA) was 135 nM and the IC50 (S6K1) was 80 nM. For the same compound, the viability at 72 h, 5 µM (in vitro; Host viability (%) Mean ± SD) was 89.4 ± 4.6% and the viability at 72 h (in vitro) was 89.4%.
In the case of `Nc1nc(=O)n([C@@H]2CS[C@H](CO)O2)cc1F` [Emtricitabine (Emtriva)], the inhibition of growth at 5 µM [1, 9] is given as 0.4% and the IC50 (reverse transcriptase) is given as 27700 nM.
In the case of `O=C(Nc1c(Cl)cncc1Cl)c1ccc(OC(F)F)c(OCC2CC2)c1` [Roflumilast (Daxas)], the inhibition of growth at 5 µM [1, 8] is given as -0.2% and the IC50 (PDE4) is given as 0.2 to 4.3 nM.
For `CS(=O)(=O)c1cccc(CNc2nc(Nc3ccc4c(c3)CCC(=O)N4)ncc2C(F)(F)F)c1` [PF 573228], the inhibition of growth at 5 µM [1, 8] is given as 5% and the IC50 (FAK) is given as 4 nM.
In the case of `CNCC[C@H](Oc1cccc2ccccc12)c1cccs1` [Duloxetine HCl (Cymbalta)], the Ki [7] is given as 4.6 nM and the inhibition of growth at 5 µM [1, 9] is given as 30.9%.
For `CCN1CCN(c2cc(-c3ccc(F)cc3)c3c(n2)CCCCCC3)CC1` [Blonanserin (Lonasen)], the Ki (dopamine D2) is listed as 14.8 nM, the inhibition of growth at 5 µM [1, 8] is listed as 82.1% and the Ki (5-HT2 receptor) is listed as 3.98 nM. The viability at 72 h (in vitro) was 88.3%.
For `CN(C)Cc1ccc(-c2nc3cccc4c3n2CCNC4=O)cc1` [AG14361], the inhibition of growth at 5 µM [1, 8] is given as 28.9% and the Ki (PARP1) is given as < 5 nM.
In the case of `Nc1cccc(-c2cc3c(Oc4cccc(O)c4)ncnc3[nH]2)c1` [TWS119], the inhibition of growth at 5 µM [1, 8] is listed as 40.8% and the IC50 (GSK-3β) is listed as 30 nM.
In the case of `Cc1c(-c2ccc(O)cc2)n(Cc2ccc(OCCN3CCCCCC3)cc2)c2ccc(O)cc12` [Bazedoxifene HCl], the IC50 (ERβ) is listed as […], the inhibition of growth at 5 µM [1, 8] is listed as -12.8% and the IC50 (ERα) is listed as […].
